Data: patent publication US5591758A, “Organic nitrates, processes for their preparation and their use in the treatment of cardiovascular diseases” (Laboratoires Hoechst, SA, priority 1991, dated 1997)
Counter-ions that a name gives are not always drawn.

Assays:
anesthetised pigs = assay: Haemodynamic effects on anesthetised pigs; assay type: in vivo, pigs ("German land" race)
Procedure: Haemodynamic effects of the compounds according to the invention on anesthetised pigs or dogs
Pigs are of "German land" race (20-26 kg) and are used after fasting overnight.
In the case of pigs, sedation, analgesia and anesthesia are induced by ketamine HCl (20 mg/kg i.m.), methonidate HCl (10 mg/kg i.m.), xylacine HCl (3 mg/kg i.m.) and sodium pentobarbitol (25-30 mg/kg as bolus i.v. or 0.16 mg/kg/min as i.v. perfusion).
The pigs or dogs are placed under artificial respiration in ambient air. Analysis of the blood gases (pO2, pCO2) is carried out at regular intervals and oxygen can be supplied via the respirator, if necessary.
The haemodynamic parameters recorded include the left ventricular pressure (LVP; Millar PC350 Tip catheter inserted via the carotid artery), systemic blood pressure (BPs, BPd; full catheter in a femoral artery), the end pressure of the left ventricular diastole (LVEDP), the ventricular contractility (LVPdp/dtmax) and the heart rate (HR).
The haemodynamic variables are recorded continuously for 1 to 3 hours, as a function of the period of action of the compound.
The effects of the compounds studied are shown as the absolute difference with respect to the base value (bv) measured before administration of the compounds and are shown in Table VII (a,b,c).
An antianginal activity is estimated by a fall in the BPs and the LVEDP (fall in venous return).

[1] = system: isolated pulmonary vessel; assay: Relaxant activity on blood vessels isolated from guinea pigs (pulmonary artery); details: Cavia porcellus; guinea pig pulmonary artery, K+ depolarised, Ca2+ contraction; read-out: IC50 (relaxation of 50%)
Procedure: Determination of the relaxant activity of the compounds according to the invention on blood vessels isolated from guinea pigs.
The pulmonary artery of male guinea pigs (350-500 g) is isolated and cut into spiral tracts (1 mm wide, 15 mm long). […] After having removed the calcium from the tissues (Tyrode without calcium and 0.2 mM EDTA), the tracts are depolarised in the presence of a concentrated solution of K^+ ions (40 mM), which is produced by replacing the NaCl by equimolar amounts of KCl, and a contraction of long duration is then induced by Ca^2+ ions (0.5 mM).
The compounds studied are then introduced into the organ cell in increasing concentrations.
Each compound is tested on at least four vessel spiral tracts.

thoracic aorta = assay: Vasorelaxant effect on isolated vessels (rat thoracic aorta rings without endothelium, precontracted with noradrenalin); design: species or system Wistar rats; details: for Emax: Rattus norvegicus, maximum inhibition of noradrenalin effect, 10^-8 to 10^-4 M substance, read-out: Maximum Relaxation; for IC50: rat aorta, 10^-7 M noradrenalin contraction
Method in brief: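 Endothelium-denuded thoracic aorta rings from Wistar rats, held in Krebs-Ringer buffer (pH 7.4, 37 °C, 95% O2/5% CO2) under isometric tension and precontracted with 10^-7 M noradrenalin, received cumulative compound (10^-8 to 10^-4 M). Maximum relaxation given as percent; IC50 calculated when relaxation exceeded 50%.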

## O=C(CNC(=O)OCc1ccccc1)N[C@H]1CO[C@H]2[C@@H]1OC[C@@H]2O[N+](=O)[O-] [Compound 4, N-[(Benzyloxy)carbonyl]glycine amide of 5-amino-5-deoxy-2-O-nitro-1,4:3,6-dianhydro-L-iditol]
Anesthetised pigs; pigs, 3,0 mg/kg i.d.
  BPs (min), period of action: > 120 min
  BPs, difference to base value: -28 mmHg
  LVRDP (min), period of action: > 120 min
  LVRDP, difference to base value: -2,0 mmHg
[1]
  IC50: 6 µM
Thoracic aorta
  Emax: 75%
  IC50: 20 µM

## CC(C)(C)OC(=O)NCC(=O)N[C@H]1CO[C@H]2[C@@H]1OC[C@@H]2O[N+](=O)[O-] [Compound 5, N-[(t-Butoxy)carbonyl]glycine amide of 5-amino-5-deoxy-2-O-nitro-1,4:3,6-dianhydro-L-iditol]
Anesthetised pigs; pigs, 1,0 mg/kg i.d.
  BPs (min), period of action: > 120 min
  BPs, difference to base value: -24 mmHg
  LVRDP (min), period of action: > 120 min
  LVRDP, difference to base value: -4,0 mmHg
[1]
  IC50: 14 µM
Thoracic aorta
  Emax: 70%
  IC50: 25 µM

## NCC(=O)N[C@H]1CO[C@H]2[C@@H]1OC[C@@H]2O[N+](=O)[O-] [Compound 6, Glycine amide of 5-amino-5-deoxy-2-O-nitro-1,4:3,6-dianhydro-L-iditol monohydrochloride]
Anesthetised pigs; pigs, 1,0 mg/kg i.d.
  BPs (min), period of action: > 180 min
  BPs, difference to base value: -31 mmHg
  LVRDP (min), period of action: > 180 min
  LVRDP, difference to base value: -4,0 mmHg
[1]
  IC50: 30 µM
Thoracic aorta
  Emax: 45%
  IC50: > 100 µM

## CC(=O)NCSC[C@H](NC(=O)OC(C)(C)C)C(=O)O[C@H]1CO[C@H]2[C@@H]1OC[C@H]2O[N+](=O)[O-] [Compound 20, S-[(Acetylamino)methyl]-N-[(t-butoxy)carbonyl]-L-cysteine ester of 5-O-nitro-1,4:3,6-dianhydro-D-glucitol]
Anesthetised pigs; pigs, 10 mg/kg i.v.
  BPs (min), period of action: 5 min
  BPs, difference to base value: -20 mmHg
  LVRDP (min), period of action: 5 min
  LVRDP, difference to base value: -4,0 mmHg
Thoracic aorta
  Emax: 85%
  IC50: 28 µM

## O=C(O[C@H]1CO[C@H]2[C@@H]1OC[C@H]2O[N+](=O)[O-])c1ccccc1SCc1ccccc1 [Compound 22, 2-O-[2-[(Phenylmethyl)thio]benzoyl]-5-O-nitro-1,4:3,6-dianhydro-D-glucitol]
Anesthetised pigs; pigs, 10 mg/kg i.v.
  BPs (min), period of action: 5 min
  BPs, difference to base value: -73 mmHg
  LVRDP (min), period of action: 5 min
  LVRDP, difference to base value: -2,0 mmHg
[1]
  IC50: 3 µM
Thoracic aorta
  Emax: 100%
  IC50: 10 µM

## CC(=O)NCSc1ccccc1C(=O)O[C@H]1CO[C@H]2[C@@H]1OC[C@H]2O[N+](=O)[O-] [Compound 23]
Anesthetised pigs; pigs, 10,0 mg/kg i.d.
  BPs, difference to base value: 0 mmHg
  LVRDP, difference to base value: 0 mmHg

## O=C(O[C@@H]1CO[C@H]2[C@@H]1OC[C@@H]2O[N+](=O)[O-])c1ccccc1SCc1ccccc1 [Compound 28, 5-O-[2-[(Phenylmethyl)thio]benzoyl]-2-O-nitro-1,4:3,6-dianhydro-D-glucitol]
Anesthetised pigs; pigs, 3,0 mg/kg i.d.
  BPs (min), period of action: > 180 min
  BPs, difference to base value: -28 mmHg
  LVRDP (min), period of action: > 180 min
  LVRDP, difference to base value: -6,0 mmHg
[1]
  IC50: 2 µM
Thoracic aorta
  Emax: 70%
  IC50: 50 µM

## O=C(O[C@@H]1CO[C@H]2[C@@H]1OC[C@@H]2O[N+](=O)[O-])c1ccccc1SSc1ccccc1C(=O)O[C@@H]1CO[C@H]2[C@@H]1OC[C@@H]2O[N+](=O)[O-] [Compound 29, Bis[5-O-[(2-thio)benzoyl]-2-O-nitro-1,4:3,6-dianhydro-D-glucitol]]
Anesthetised pigs; pigs, 3 mg/kg i.v.
  BPs (min), period of action: 10 min
  BPs, difference to base value: -42 mmHg
  LVRDP (min), period of action: 16 min
  LVRDP, difference to base value: -2,0 mmHg
